Molecules are shown by their SMILES.

The target in assay [1] is T1, Prostaglandin G/H synthase 1 (Ovis aries, UniProt P05979).
T1 sequence (P05979 whole entry): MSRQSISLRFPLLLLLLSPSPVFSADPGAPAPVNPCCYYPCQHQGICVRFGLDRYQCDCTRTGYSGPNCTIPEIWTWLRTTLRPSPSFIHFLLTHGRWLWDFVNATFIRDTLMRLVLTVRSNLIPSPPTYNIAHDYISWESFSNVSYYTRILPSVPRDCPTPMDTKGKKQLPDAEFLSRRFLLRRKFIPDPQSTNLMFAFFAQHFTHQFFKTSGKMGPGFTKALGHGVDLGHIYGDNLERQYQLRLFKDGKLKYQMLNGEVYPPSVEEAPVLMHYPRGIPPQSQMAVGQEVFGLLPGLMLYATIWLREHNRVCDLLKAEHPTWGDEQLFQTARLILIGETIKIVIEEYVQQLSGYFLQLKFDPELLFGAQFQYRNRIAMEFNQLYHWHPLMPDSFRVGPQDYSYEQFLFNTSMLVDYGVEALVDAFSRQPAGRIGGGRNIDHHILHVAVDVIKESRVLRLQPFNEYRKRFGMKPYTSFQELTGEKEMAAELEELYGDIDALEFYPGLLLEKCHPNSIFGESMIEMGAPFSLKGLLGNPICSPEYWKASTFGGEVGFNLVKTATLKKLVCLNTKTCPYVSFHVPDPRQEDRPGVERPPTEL
Description: Inhibition of ovine COX1 by enzyme immuno assay

A short description of assay [2]: Inhibition of potato 5-Lipoxygenase by enzyme immuno assay. The arrangement: species or system Solanum tuberosum.
Assay [3] deals with T2, Prostaglandin G/H synthase 2 (Homo sapiens, UniProt P35354).
T2 sequence (P35354 whole entry): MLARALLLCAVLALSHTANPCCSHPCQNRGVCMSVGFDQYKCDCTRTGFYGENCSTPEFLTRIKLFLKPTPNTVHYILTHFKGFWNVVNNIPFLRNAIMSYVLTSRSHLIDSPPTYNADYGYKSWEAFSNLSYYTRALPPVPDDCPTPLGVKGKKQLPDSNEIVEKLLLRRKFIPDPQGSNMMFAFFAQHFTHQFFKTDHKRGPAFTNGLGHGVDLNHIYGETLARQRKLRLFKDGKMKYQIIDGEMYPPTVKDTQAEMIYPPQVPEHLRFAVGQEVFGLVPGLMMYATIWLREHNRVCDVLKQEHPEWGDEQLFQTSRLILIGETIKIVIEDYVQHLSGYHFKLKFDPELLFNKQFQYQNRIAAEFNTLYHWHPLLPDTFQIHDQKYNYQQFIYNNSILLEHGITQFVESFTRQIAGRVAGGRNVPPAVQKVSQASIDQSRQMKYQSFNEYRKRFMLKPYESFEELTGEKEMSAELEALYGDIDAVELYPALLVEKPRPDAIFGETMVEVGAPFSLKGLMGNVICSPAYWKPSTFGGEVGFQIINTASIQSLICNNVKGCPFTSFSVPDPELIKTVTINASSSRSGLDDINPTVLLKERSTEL
As to the kind of experiment: Inhibition of human recombinant COX2 by enzyme immuno assay.

Assay [4] deals with Rattus norvegicus. Nature of the assay: Antiinflammatory activity against carrageenan-induced paw edema in rat at 150 mg/kg, po relative to ibuprofen. The assay is classed as functional. For orientation: In the carrageenan paw model, swelling and tenderness develop within hours.
For assay [5], the system named is Rattus norvegicus. As to the kind of experiment: Antiinflammatory activity against carrageenan-induced paw edema in rat at 150 mg/kg, ip. The settings on record: route intraperitoneal. The class given is functional.
Assay [6] has as its system Rattus norvegicus. As to the kind of experiment: Antiinflammatory activity against carrageenan-induced paw edema in rat at 100 mg/kg, po. The assay is classed as functional.
The test system of assay [7] is Rattus norvegicus. As to the kind of experiment: Antiinflammatory activity against carrageenan-induced paw edema in rat at 30 mg/kg, po. The class given is functional.
The subject of assay [8] is Rattus norvegicus. As to the kind of experiment: Antiinflammatory activity against carrageenan-induced paw edema in po dosed rat. The class given is functional.

A word on the IC50: it is the point on the concentration scale where inhibition reaches its midpoint. Consider `O=C(O)Cc1ccc(-c2ccn(C(F)F)c(=O)c2)cc1`, for which the IC50 in assay [1] came out at 9.6 µM; in assay [2], 3470 nM; in assay [3], 890 nM.
For `CC(C(=O)O)c1ccccc1-c1ccn(C(F)F)c(=O)c1` (configuration not stated), in that order: over 100 µM, 2000 nM and 2600 nM.
Usually inhibition in vivo stands for the relative decrease from the control value, in per cent. A low value points to a response near the control. As for `O=C(O)Cc1ccccc1-c1ccn(C(F)F)c(=O)c1`, the IC50 in assay [1] worked out at 5.5 µM; in assay [2], 200 nM; in assay [3] it was 860 nM. In addition, the inhibition in vivo at 150 mg/kg is 19.9% in assay [4] and 18.5% in assay [5].
Regarding `CC(C(=O)O)c1ccc(-c2ccn(C(F)F)c(=O)c2)cc1` (configuration not stated), the IC50 is 15.3 µM in assay [1], 3000 nM in assay [2] and 2400 nM in assay [3].
As to `O=C(O)Cc1cccc(-c2ccn(C(F)F)c(=O)c2)c1`, the values for the IC50 in assay [1], in assay [2] and in assay [3] were over 100 µM, 370 nM and 11100 nM, respectively. The compound also came in with an inhibition in vivo at 100 mg/kg in assay [6] of 11.2%.
`O=C(O)/C=C/c1ccc(O)c(O)c1` [CAFFEIC ACID] registered an IC50 in assay [2] of 4000 nM. This compound returned an inhibition in vivo at 30 mg/kg in assay [7] of 8.2%.
As a reminder, the ED50 is the dose at which the effect has come halfway, by size or by number of responders. A higher ED50 goes with weaker potency. `CC(C)Cc1ccc(C(C)C(=O)O)cc1` (configuration not stated) [IBUPROFEN]: the ED50 in assay [8] amounted to 67.4 mg/kg.
`CC(Cc1ccc(O)c(O)c1)C(C)Cc1ccc(O)c(O)c1` (configuration not stated) [NORDIHYDROGUAIARETIC ACID] registered an inhibition in vivo at 30 mg/kg in assay [7] of 15.1%.

These data come from ChEMBL document CHEMBL1159082, “Phenylacetic acid regioisomers possessing a N-difluoromethyl-1,2-dihydropyrid-2-one pharmacophore: evaluation as dual inhibitors of cyclooxygenases and 5-lipoxygenase with anti-inflammatory activity” (Bioorg Med Chem Lett, 2010).
